Data published in patent US20250339399A1, “SUPRAMOLECULAR SELF-ASSEMBLY SYSTEM” (Beijing Creatron Institute of Pharmaceutical Research Co., …, priority 2022, published 2025).
Read-outs that look alike come from different tables or passages of the source. One block for each molecule: values may come before it.

Columns and labels:
[1] = prost derivatives; 37° C.; cited from earlier work
[2] = cited from earlier work; for Log P: prost derivatives, Table 31 (relevant information)
[3] = Binary supramolecular self-assembly systems of polymer and target: guest concentration over incubation time (Comparative Example 2); assay type: physicochemical
Description: Experiments were conducted according to the steps in Comparative Example 1, and quantitative analysis was carried out using the analytical method for each target to investigate the regulation ability […] stacking.

[4] = Guest molecule concentration after incubation in initial medium without polymer (Comparative Example 1); assay type: physicochemical; details: 37° C.
How it was run: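 Dissolved guest content measured by HPLC of centrifuged supernatants (37° C., 13000 rpm, 5 min) sampled at 0.5 h, 3 h and 6 h. Incubation was polymer-free at 37° C.±0.5° C. in buffers of pH 2.0-7.4; nominal loading was set by maximum clinical dose.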

[5] = Binary (carrier), ternary and quaternary supramolecular self-assembly systems of polymer, carrier building block and target: guest concentration over incubation time (Examples 1-56); assay type: physicochemical
How it was run: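 Targets were incubated at 37 °C in pH 2.0–7.4 buffers with 0.5% polymer alone or with carrier building blocks, after 0.5 h sonication for ternary systems, and shaken at 200 rpm. Samples at 0.5–6 h were centrifuged and diluted ≥10-fold, and dissolved target was quantified by HPLC; surfactant was added if needed.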

[6] = cited from earlier work
[7] = Comparative Example 3: systems with 10% (W/V) natural building block; assay type: physicochemical; details: Comparative Example 3: 10% 319; 6 h
Description: An initial medium of each above target molecule was used to prepare a solution containing 10% Rubusoside A (313) or 10% (W/V) Mogroside V (319), the solution was sonicated at 37° C. to prepare a solution containing about 100 mg/mL building block 313 or 319 per 1 mL of the initial medium, the clear medium containing the natural building blocks was incubated in a 37° C. constant temperature air bath shaker for 1 hour, and subsequent operations and sample detection followed the steps of Comparative Examples 1 and 2. Considering that each natural building block had different UV absorption and was added at a high concentration, the more specific HPLC method was still used for quantitative determination on the solution concentration of each guest molecule, […].

[8] = binary system with 0.5% polymer 101, incubation 0.5 h
[9] = binary system with 0.5% polymer 101, incubation 3 h
[10] = binary system with 0.5% polymer 101, incubation 6 h
[11] = binary system with 0.5% polymer 102, incubation 0.5 h
[12] = binary system with 0.5% polymer 102, incubation 3 h
[13] = binary system with 0.5% polymer 102, incubation 6 h
[14] = binary system with 0.5% polymer 103, incubation 0.5 h
[15] = binary system with 0.5% polymer 103, incubation 3 h
[16] = binary system with 0.5% polymer 103, incubation 6 h
[17] = binary system with 0.5% polymer 106, incubation 0.5 h
[18] = binary system with 0.5% polymer 106, incubation 3 h
[19] = binary system with 0.5% polymer 106, incubation 6 h
[20] = binary system with 0.5% polymer 107, incubation 0.5 h
[21] = binary system with 0.5% polymer 107, incubation 3 h
[22] = binary system with 0.5% polymer 107, incubation 6 h
[23] = binary system with 0.5% polymer 110, incubation 0.5 h
[24] = binary system with 0.5% polymer 110, incubation 3 h
[25] = binary system with 0.5% polymer 110, incubation 6 h
[26] = quaternary: 0.05% 314 + 0.25% 201, 6 h
[27] = quaternary: 0.05% 314 + 0.25% 202, 6 h
[28] = quaternary: 0.05% 314 + 0.25% 203, 6 h
[29] = quaternary: 0.05% 314 + 0.25% 204, 6 h
[30] = quaternary: 0.05% 314 + 0.25% 205, 6 h
[31] = ternary: 0.25% 102H + 0.1% 319, 6 h
[32] = ternary: 0.25% 102H + 1.0% 319, 6 h
[33] = ternary: 0.25% 102M + 0.5% 302, 6 h

SMILES: CCNC(=O)CCC/C=C\C[C@@H]1[C@@H](/C=C/[C@@H](O)CCc2ccccc2)[C@H](O)C[C@@H]1O [Bimatoprost, bimatoprost]
- Intrinsic solubility [1]: 0.05 mg/mL
- Log P [2]: 2.65

SMILES: C=C(C)[C@@H]1CCC(C)=C[C@H]1c1c(O)cc(CCCCC)cc1O [Cannabidiol]
- Concentration of the target in the solution measured after different incubation time [3, 8]: 282.6 µg/mL
- Concentration of the target in the solution measured after different incubation time [3, 9]: 293.7 µg/mL
- Concentration of the target in the solution measured after different incubation time [3, 10]: 342.5 µg/mL
- Concentration of the target in the solution measured after different incubation time [3, 11]: 307.3 µg/mL
- Concentration of the target in the solution measured after different incubation time [3, 12]: 323.6 µg/mL
- Concentration of the target in the solution measured after different incubation time [3, 13]: 333.1 µg/mL
- Concentration of the target in the solution measured after different incubation time [3, 14]: 54.8 µg/mL
- Concentration of the target in the solution measured after different incubation time [3, 15]: 55.1 µg/mL
- Concentration of the target in the solution measured after different incubation time [3, 16]: 55.7 µg/mL
- Concentration of the target in the solution measured after different incubation time [3, 17]: 148.1 µg/mL
- Concentration of the target in the solution measured after different incubation time [3, 18]: 149.4 µg/mL
- Concentration of the target in the solution measured after different incubation time [3, 19]: 155.7 µg/mL
- Concentration of the target in the solution measured after different incubation time [3, 20]: 109.6 µg/mL
- Concentration of the target in the solution measured after different incubation time [3, 21]: 97.2 µg/mL
- Concentration of the target in the solution measured after different incubation time [3, 22]: 95.7 µg/mL
- Concentration of the target in the solution measured after different incubation time [3, 23]: 168.9 µg/mL
- Concentration of the target in the solution measured after different incubation time [3, 24]: 8.6 µg/mL
- Concentration of the target in the solution measured after different incubation time [3, 25]: 7.3 µg/mL
- Concentration of guest molecule in solution ([3]; binary: 0.25% 101, 6 h): 342.5 µg/mL
- Times that of the initial medium ([3]; binary: 0.25% 101, 6 h): 40 times
- Concentration of guest molecule in solution ([3]; binary: 0.25% 103E3, 6 h): 55.7 µg/mL
- Concentration of guest molecule in solution ([3]; binary: 0.25% 106 (K30), 6 h): 155.7 µg/mL
- Times that of the initial medium ([3]; binary: 0.25% 106 (K30), 6 h): 18 times
- Concentration of guest molecule measured after different incubated time ([4]; 0.5 h, 0.05% SDS in pH 6.8 phosphate buffer): 11.4 µg/mL
- Concentration of guest molecule measured after different incubated time ([4]; 3 h, 0.05% SDS in pH 6.8 phosphate buffer): 11.8 µg/mL
- Concentration of guest molecule measured after different incubated time ([4]; 6 h, 0.05% SDS in pH 6.8 phosphate buffer): 8.5 µg/mL
- LogD7.4 or Log P [2]: 6.32
- Concentration of guest molecule in solution [5, 26]: 732.2 µg/mL
- Times that of the initial medium [5, 26]: 86 times
- Concentration of guest molecule in solution [5, 27]: 399.4 µg/mL
- Times that of the initial medium [5, 27]: 47 times
- Concentration of guest molecule in solution [5, 28]: 648.3 µg/mL
- Times that of the initial medium [5, 28]: 76 times
- Concentration of guest molecule in solution [5, 29]: 725.0 µg/mL
- Times that of the initial medium [5, 29]: 85 times
- Concentration of guest molecule in solution [5, 30]: 581.7 µg/mL
- Times that of the initial medium [5, 30]: 68 times
- Concentration of guest molecule in solution ([5]; ternary: 102M + 0.1% 310, 6 h): 580.1 µg/mL
- Concentration of guest molecule in solution ([5]; ternary: 102M + 0.25% 310, 6 h): 481.2 µg/mL
- Concentration in the system ([6]; 200 mM methyl-beta-cyclodextrin, literature): 25500 µg/mL
- Best result reported by the literature (concentration) ([6]; International Journal of Pharmaceutics 589 (2020) 119812): 150 µg/mL
- Concentration in the system ([6]; about 5-10 mM methyl-beta-cyclodextrin, literature curve): lower than 1 mg/mL

- Concentration of the target in the solution measured after different incubation time [3, 8]: 219.7 µg/mL
- Concentration of the target in the solution measured after different incubation time [3, 9]: 120.1 µg/mL
- Concentration of the target in the solution measured after different incubation time [3, 10]: 50.3 µg/mL
- Concentration of the target in the solution measured after different incubation time [3, 11]: 747.8 µg/mL
- Concentration of the target in the solution measured after different incubation time [3, 12]: 643.4 µg/mL
- Concentration of the target in the solution measured after different incubation time [3, 13]: 576.7 µg/mL
- Concentration of the target in the solution measured after different incubation time [3, 14]: 76.1 µg/mL
- Concentration of the target in the solution measured after different incubation time [3, 15]: 52.9 µg/mL
- Concentration of the target in the solution measured after different incubation time [3, 16]: 32.7 µg/mL
- Concentration of the target in the solution measured after different incubation time [3, 17]: 102.6 µg/mL
- Concentration of the target in the solution measured after different incubation time [3, 18]: 118.1 µg/mL
- Concentration of the target in the solution measured after different incubation time [3, 19]: 90.3 µg/mL
- Concentration of the target in the solution measured after different incubation time [3, 20]: 107.4 µg/mL
- Concentration of the target in the solution measured after different incubation time [3, 21]: 8.3 µg/mL
- Concentration of the target in the solution measured after different incubation time [3, 22]: 7.7 µg/mL
- Concentration of the target in the solution measured after different incubation time [3, 23]: 6.0 µg/mL
- Concentration of the target in the solution measured after different incubation time [3, 24]: 8.3 µg/mL
- Concentration of the target in the solution measured after different incubation time [3, 25]: 10.0 µg/mL
- Concentration of guest molecule in solution ([3]; binary: 0.25% 102M, 2 h): 962.6 µg/mL
- Concentration of guest molecule in solution ([3]; binary: 0.25% 102M, 6 h): 6.4 µg/mL
- Concentration of guest molecule in solution ([3]; binary: 0.5% 102M, 6 h): 576.6 µg/mL
- Times that of the initial medium ([3]; binary: 0.5% 102M, 6 h): 67 times
- Concentration of guest molecule measured after different incubated time ([4]; 0.5 h, pH 6.8 phosphate buffer): 1.7 µg/mL
- Concentration of guest molecule measured after different incubated time ([4]; 3 h, pH 6.8 phosphate buffer): 9.4 µg/mL
- Concentration of guest molecule measured after different incubated time ([4]; 6 h, pH 6.8 phosphate buffer): 8.6 µg/mL
- Concentration of guest molecule in solution [7]: 8.3 µg/mL
- Concentration of guest molecule in solution ([5]; quaternary: 0.25% 204 (102M+103E5) + 302, 6 h): 34.2 µg/mL
- Concentration of guest molecule in solution [5, 31]: 676.6 µg/mL
- Times that in Comparative Example 3 [5, 31]: 81.5 times
- Concentration of guest molecule in solution [5, 32]: 516.3 µg/mL
- Times that in Comparative Example 3 [5, 32]: 62.2 times
- Concentration of guest molecule in solution ([5]; ternary: 0.25% 102M + 0.05% 314, 0.5 h): 140.0 µg/mL
- Concentration of guest molecule in solution ([5]; ternary: 0.25% 102M + 0.05% 314, 6 h): 5.2 µg/mL
- Concentration of guest molecule in solution ([5]; ternary: 0.25% 102M + 0.1% 314, 4 h): 1036.7 µg/mL
- Concentration of guest molecule in solution [5, 33]: 862.1 µg/mL
- Times that of the initial medium [5, 33]: 100.6 times
- Concentration of guest molecule in solution ([5]; ternary: 0.25% 102M + 1.0% or 1.5% 314, 0.5 h-4.0 h): ~1000 µg/mL
- Concentration of guest molecule in solution ([5]; ternary: 0.25% 102M + 1.0% or 1.5% 314, 6 h): 900 µg/mL
- Concentration of guest molecule in solution ([5]; ternary: 102H + 313, 4 h): about 609.8 μg/mL
- Concentration of guest molecule in solution ([5]; ternary: 102H + 317, 4 h): ~638.6 µg/mL
SMILES: COc1cc(/C=C/C(=O)CC(=O)/C=C/c2ccc(O)c(OC)c2)ccc1O [Curcumin]
- LogP [2]: 4.12

SMILES: CC(C)OC(=O)CCC/C=C\C[C@@H]1[C@@H](CC[C@@H](O)CCc2ccccc2)[C@H](O)C[C@@H]1O [Latanoprost, latanoprost]
- Intrinsic solubility [1]: 0.03 mg/mL
- Log P [2]: 3.98
